For one test, the system named is Coffea. Nature of the test: Inhibition of coffee beans alpha-galactosidase at 1000 uM.
The target of test [1] is T1, Glucosylceramidase (Bos taurus) (UniProt Q2KHZ8).
T1 sequence (whole entry): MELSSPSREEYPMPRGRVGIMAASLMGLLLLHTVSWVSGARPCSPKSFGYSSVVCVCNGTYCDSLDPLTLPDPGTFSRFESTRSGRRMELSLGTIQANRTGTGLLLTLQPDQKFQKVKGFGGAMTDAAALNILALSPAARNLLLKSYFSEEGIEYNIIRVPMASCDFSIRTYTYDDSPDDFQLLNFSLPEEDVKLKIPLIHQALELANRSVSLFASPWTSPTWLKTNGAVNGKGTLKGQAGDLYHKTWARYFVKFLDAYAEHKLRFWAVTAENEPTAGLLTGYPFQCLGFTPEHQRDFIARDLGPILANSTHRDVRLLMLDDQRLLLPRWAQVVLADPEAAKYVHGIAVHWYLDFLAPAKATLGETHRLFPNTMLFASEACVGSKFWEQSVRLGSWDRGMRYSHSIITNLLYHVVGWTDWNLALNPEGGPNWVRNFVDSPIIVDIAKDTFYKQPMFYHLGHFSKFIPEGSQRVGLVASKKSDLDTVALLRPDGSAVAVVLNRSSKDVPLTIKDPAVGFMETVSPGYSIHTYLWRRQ
Nature of the test: Inhibition of bovine liver beta-glucosidase at 1000 uM.

The test system of the next test is Prunus dulcis. Nature of the test: Inhibition of almond beta-glucosidase at 1000 uM.
For another test, the species on record is Sus scrofa. Nature of the test: Inhibition of porcine kidney alpha,alpha-trehalase at 1000 uM.
Another test has as its system Helix pomatia. Nature of the test: Inhibition of snail beta-mannosidase at 1000 uM.
The target in test [2] is T2, Beta-glucuronidase (Bos taurus) (UniProt A3KMY8).
T2 sequence (whole entry): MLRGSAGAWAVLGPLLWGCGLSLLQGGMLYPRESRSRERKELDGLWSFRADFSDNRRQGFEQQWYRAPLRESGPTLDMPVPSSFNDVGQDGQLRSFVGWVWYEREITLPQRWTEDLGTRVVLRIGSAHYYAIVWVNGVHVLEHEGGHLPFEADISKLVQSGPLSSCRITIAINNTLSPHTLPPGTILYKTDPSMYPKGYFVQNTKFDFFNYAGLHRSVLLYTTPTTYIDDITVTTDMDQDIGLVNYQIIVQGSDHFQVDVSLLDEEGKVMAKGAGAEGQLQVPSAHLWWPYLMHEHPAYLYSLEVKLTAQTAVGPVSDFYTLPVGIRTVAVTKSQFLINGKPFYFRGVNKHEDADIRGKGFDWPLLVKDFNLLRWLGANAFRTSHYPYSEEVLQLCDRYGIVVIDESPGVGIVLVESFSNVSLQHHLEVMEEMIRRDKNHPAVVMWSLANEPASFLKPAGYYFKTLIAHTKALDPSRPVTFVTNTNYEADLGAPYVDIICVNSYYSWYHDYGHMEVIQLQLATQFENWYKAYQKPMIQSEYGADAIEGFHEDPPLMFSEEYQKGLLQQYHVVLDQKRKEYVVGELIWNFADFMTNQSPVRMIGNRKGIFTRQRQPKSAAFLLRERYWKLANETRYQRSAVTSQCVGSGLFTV
Nature of the test: Inhibition of bovine liver beta-glucuronidase at 1000 uM.

The species named for test [3] is Rattus norvegicus. Nature of the test: Inhibition of rat intestinal beta-galactosidase at 1000 uM.
The target in test [4] is T3, Alpha-glucosidase (Aspergillus niger) (UniProt P56526).
T3 sequence (whole entry): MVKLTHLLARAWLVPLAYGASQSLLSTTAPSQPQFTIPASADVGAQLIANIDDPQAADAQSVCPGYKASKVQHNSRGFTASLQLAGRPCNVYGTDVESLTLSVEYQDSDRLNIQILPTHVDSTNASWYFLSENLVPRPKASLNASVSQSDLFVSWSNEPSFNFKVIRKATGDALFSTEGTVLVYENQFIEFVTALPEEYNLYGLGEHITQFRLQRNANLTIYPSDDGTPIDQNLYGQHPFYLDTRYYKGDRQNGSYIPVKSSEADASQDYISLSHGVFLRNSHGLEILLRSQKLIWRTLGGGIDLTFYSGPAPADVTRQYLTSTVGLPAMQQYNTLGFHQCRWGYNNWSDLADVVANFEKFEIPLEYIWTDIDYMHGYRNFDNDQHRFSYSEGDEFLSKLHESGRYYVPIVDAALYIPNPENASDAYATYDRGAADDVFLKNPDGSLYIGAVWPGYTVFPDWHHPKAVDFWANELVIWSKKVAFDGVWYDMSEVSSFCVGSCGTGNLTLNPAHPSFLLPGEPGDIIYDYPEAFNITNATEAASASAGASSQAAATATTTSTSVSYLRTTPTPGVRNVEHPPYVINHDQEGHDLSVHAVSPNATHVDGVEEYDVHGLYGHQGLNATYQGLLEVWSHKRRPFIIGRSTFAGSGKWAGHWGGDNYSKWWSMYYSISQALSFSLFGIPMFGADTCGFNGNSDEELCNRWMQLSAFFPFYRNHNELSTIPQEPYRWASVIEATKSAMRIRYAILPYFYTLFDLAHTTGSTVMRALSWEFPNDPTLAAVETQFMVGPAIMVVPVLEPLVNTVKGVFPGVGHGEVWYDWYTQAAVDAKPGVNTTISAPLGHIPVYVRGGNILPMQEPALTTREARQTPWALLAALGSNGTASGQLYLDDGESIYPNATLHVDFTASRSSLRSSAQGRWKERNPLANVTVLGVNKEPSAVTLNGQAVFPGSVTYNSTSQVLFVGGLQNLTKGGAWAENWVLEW
Nature of the test: Inhibition of Aspergillus niger alpha-glucosidase at 1000 uM.

The test system of the next test is Rhizopus. Nature of the test: Inhibition of rhizopus amyloglucosidase at 1000 uM.
The subject of a further test is Oryza sativa. Nature of the test: Inhibition of rice alpha-glucosidase at 1000 uM.
A further test relates to Escherichia coli. Nature of the test: Inhibition of Escherichia coli beta-glucuronidase at 1000 uM.
In test [5] the test system is Aspergillus niger. Nature of the test: Inhibition of Aspergillus niger amyloglucosidase at 1000 uM.
The species named for test [6] is Rattus norvegicus. Nature of the test: Inhibition of rat intestinal alpha-glucosidase at 1000 uM.
The subject of test [7] is Aspergillus niger. Nature of the test: Inhibition of Aspergillus niger beta-glucosidase at 1000 uM.
The subject of another test is Penicillium decumbens. Nature of the test: Inhibition of Penicillium decumbens alpha-L-rhamnosidase at 1000 uM.
A further test has as its system Saccharomyces cerevisiae. Nature of the test: Inhibition of yeast alpha-glucosidase at 1000 uM.

As to `O=C1CC[C@H](O)[C@H]2[C@@H](O)CN12`, the inhibition in the test on Coffea was found to be 0%; in test [1], 14.9%; in the test on Prunus dulcis it was 0%; in the test listed under Sus scrofa it was 5.2%; in the test on Helix pomatia, 0%; in test [2], 4.2%. The inhibition in the test filed under Rattus norvegicus [3] was 0%; in [4] it was 0%; in the test on Rhizopus it was 3.8%; with Oryza sativa, 2.7%; in the test on Escherichia coli, 8.9%; with Aspergillus niger [5], 3%. In addition, the inhibition in the test filed under Rattus norvegicus [6] amounted to 25.2%; with Aspergillus niger [7], 1.2%; with Penicillium decumbens, 11.1%; in the test on Saccharomyces cerevisiae it was 3.1%.
With `OC[C@H]1NC[C@@H](O)[C@H](O)[C@@H]1O`, the inhibition with Coffea stood at 20.5%; in [1] it was 10.9%; in the test on Prunus dulcis, 18.8%; in the test filed under Sus scrofa, 2.1%; in the test with Helix pomatia it was 0%; in [2] it was 7.4%. The inhibition in the test filed under Rattus norvegicus [3] is 44.6%; in test [4], 19.1%; in the test with Rhizopus, 7%; in the test with Oryza sativa, 7.2%; in the test on Escherichia coli, 0%; in the test on Aspergillus niger [5], 5%. The inhibition stood at 24.2% in the test filed under Rattus norvegicus [6], 1.8% in the test with Aspergillus niger [7], 2.1% in the test on Penicillium decumbens and 1.4% in the test with Saccharomyces cerevisiae.

Values taken from ChEMBL document CHEMBL2407027, “(3R,4S,5R,6R,7S)-3,4,5,7-Tetrahydroxyconidine, an azetidine analogue of 6,7-diepicastanospermine and a conformationally constrained d-deoxyaltronojirimycin, from l-arabinose” (Bioorg Med Chem, 2013).
